This passage reports TGI and GI50 results from PubChem BioAssay (NCI).

Each structure is given as a SMILES string.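 How tested: cells in 96-well plates exposed to compound for 48 hours at five concentrations. At the GI50, growth is halved. The concentration for full growth arrest is given as TGI.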 A value given as a limit tells only on which side of the number the result lay.

Experiment in all cases: DTP human tumour cell line panel, 48 h
For experiment [1], the system named is HOP-92 NSCLC.
In experiment [2] the test system is MOLT-4 leukemia.
Experiment [3] deals with SF-295 CNS.
The test system of experiment [4] is UACC-257 melanoma.

With `CC(C)(C)Cc1cc(O)ccc1O`, the TGI in experiment [1], in experiment [2], in experiment [3] and in experiment [4] was greater than 100 µM throughout.

In the case of `C=CC[C@@]12CCC(=O)C=C1CCCC2=O`, the TGI in experiment [1], in experiment [2], in experiment [3] and in experiment [4] was greater than 100 µM throughout.

On to `Cc1ccc(C2=Nn3c(nc4sc5c(c4c3=O)CCCC5)SC2)cc1`, for which the TGI in experiment [1], in experiment [2], in experiment [3] and in experiment [4] was greater than 100 µM throughout.

Consider `CC1(C)N([O-])[N+](=O)C1(Br)c1ccccc1` (stereo not drawn), for which the TGI in experiment [1], in experiment [2], in experiment [3] and in experiment [4] was greater than 100 µM each time.

With `COc1ccc2c(c1)C1c3ccccc3CCN1CCC2` (stereo not drawn), the concentration for total growth inhibition (TGI) in experiment [1] was greater than 100 µM; in experiment [2] it was greater than 100 µM; in experiment [3], 54 µM; in experiment [4], greater than 100 µM.

With `O=[N+]([O-])c1cc2ccc1OCc1cccc(n1)COc1ccc(cc1[N+](=O)[O-])C=NCCCCCCCCN=C2`, the TGI in experiment [1], in experiment [2], in experiment [3] and in experiment [4] was greater than 100 µM throughout.

`Nc1ncnc2c1ncn2[C@@H]1C[C@H](NO)[C@@H](O)[C@H]1O`: the TGI in experiment [1], in experiment [2], in experiment [3] and in experiment [4] was greater than 100 µM throughout.

Take `COC(=O)/C=C/c1ccc2c(c1)[C@H](C(=O)OC)[C@@H](c1ccc(O)cc1)O2`: the TGI in experiment [1] is greater than 100 µM; in experiment [2], 96.5 µM; in experiment [3], greater than 100 µM; in experiment [4] it was greater than 100 µM.

In the case of `CCOC(=O)CNC(=O)CNC(=O)CNC(=O)CNNc1c(OCc2ccccc2)c(=O)c1=O`, the TGI in experiment [2] and in experiment [4] was greater than 100 µM each time.

With `Cn1nc(S(N)(=O)=O)s/c1=N/S(=O)(=O)c1ccc(N)cc1`, the TGI in experiment [1], in experiment [2] and in experiment [3] was greater than 100 µM throughout.

For the molecule `C=C(C)CCN(C(=O)OC(C)(C)C)c1cc(C(C)C)co1`, the TGI was 61 µM in experiment [1], 98 µM in experiment [2], greater than 100 µM in experiment [3] and greater than 100 µM in experiment [4].

For the molecule `CCOC(=O)CON=c1c2ccccc2ccc2ccccc12`, the TGI in experiment [1], in experiment [2], in experiment [3] and in experiment [4] was greater than 100 µM each time.

Turning to `COC(=O)/C(C#N)=C(/NCc1ccccc1)Nc1ccccc1`, the TGI in experiment [1], in experiment [2], in experiment [3] and in experiment [4] was greater than 100 µM in each case.

For the molecule `COc1ccc(C(c2cc(OC)c(OC)c(OC)c2)N2C(=O)CCC2C(=O)O)cc1` (stereo not drawn), the TGI is greater than 100 µM in experiment [1], greater than 100 µM in experiment [2], 66.4 µM in experiment [3] and greater than 100 µM in experiment [4].

On to `CC(C)N(C(=O)C12C3(C(=O)C(C)(C)C)C4C5(C#N)C3C1(C(=O)C(C)(C)C)C5C42C(=O)C(C)(C)C)C(C)C` (stereo not drawn), for which the TGI in experiment [1], in experiment [2], in experiment [3] and in experiment [4] was greater than 100 µM in each case.

For the molecule `CCC1(CC)C(=O)NN(C(=O)c2ccc(Cl)cc2)C1=O`, the TGI in experiment [2], in experiment [3] and in experiment [4] was greater than 100 µM each time.

On to `CC(C(=O)O)C1Nc2ccccc2NC1=O` (stereo not drawn), for which the TGI in experiment [1], in experiment [2], in experiment [3] and in experiment [4] was greater than 100 µM in each case.

Take `COCCNC1CCC(=O)c2[nH]c3ccccc3c21` (stereo not drawn): the TGI in experiment [1], in experiment [2], in experiment [3] and in experiment [4] was greater than 100 µM in each case.

`[O-]/[N+](=N/c1ncc(-c2ccccc2)cn1)c1ncc(-c2ccccc2)cn1`: the TGI in experiment [1], in experiment [2], in experiment [3] and in experiment [4] was greater than 100 µM in each case.

Turning to `C=C1C(=O)OC2/C=C(\C)CC/C=C(\C)CC(OC(=O)/C(=C/CO)CO)[C@@H]12` (stereo partly drawn), the TGI is 13.5 µM in experiment [1], 5.55 µM in experiment [2], greater than 100 µM in experiment [3] and 24.2 µM in experiment [4]. The GI50 in experiment [2] is 1.92 µM.

For the molecule `O=C1O/C(=C(/Cl)c2c3ccccc3cc3ccccc23)c2ccccc21`, the TGI in experiment [1] was 50.3 µM; in experiment [2], greater than 100 µM; in experiment [3] it was greater than 100 µM; in experiment [4] it was greater than 100 µM.

Take `N#CCN1CCN(CC#N)CCN(CC#N)CCN(CC#N)CC1`: the TGI in experiment [1], in experiment [2], in experiment [3] and in experiment [4] was greater than 100 µM each time.

With `Cc1ccc(/C=C2\CCCCCC2=O)cc1`, the TGI in experiment [1], in experiment [2], in experiment [3] and in experiment [4] was greater than 100 µM in each case.

As to `O=C1/C(=C/c2ccc(OC(=O)c3ccc(Cl)cc3)cc2)CCC/C1=C\c1ccc(OC(=O)c2ccc(Cl)cc2)cc1`, the TGI in experiment [1], in experiment [2] and in experiment [4] was greater than 100 µM throughout.

`O=C(/C=C/c1ccccc1Br)c1ccccc1`: the TGI turned out to be 32.4 µM in experiment [1], 23.4 µM in experiment [3] and 24.1 µM in experiment [4].

In the case of `CC(C)(C)CN1[C@@H]2CCCC[C@H]2N(CC(C)(C)C)P1(=O)C(O)/C=C/c1ccccc1` (stereo partly drawn), the TGI in experiment [1] was 67 µM; in experiment [2] it was greater than 100 µM; in experiment [3] it was greater than 100 µM; in experiment [4], greater than 100 µM.

As for `COC(=O)/C=C/C(=O)Nc1cc(Cl)c(Cl)cc1CC(=O)N(C)[C@H]1CCCC[C@@H]1N1CCCC1`, the TGI stood at 18.7 µM in experiment [1], 13.8 µM in experiment [2], 36.2 µM in experiment [3] and 13 µM in experiment [4].
